Measurements reported in patent US8729269B2, “Substituted piperidino phenyloxazolidinones having antimicrobial activity with improved in vivo efficacy” (Wockhardt Limited, priority 2003, dated 2014).
In brackets after ≈: the same amount, converted by molar mass.

Tests used:
[1] = system: Vancomycin resistant enterococci 303 (VRE 303); assay: Minimum Inhibitory Concentration (MIC) determination, agar dilution; assay type: cell-based; settings: Enterococcus, Mueller Hinton agar, 24 hrs at 35° C.
Description: (§1) Overnight grown cultures of Methicilin resistant Staphylococcus aureus 32 (MRSA 32), Methicilin resistant Staphylococcus epidermidis 118 (MRSE 118), Vancomycin resistant enterococci 303 (VRE 303) in Tryptic Soya broth were diluted in Mueller Hinton Broth to give optical density matching with MacFarland tube 0.5 standard. Cultures were further diluted 1:10 in Mueller Hinton broth. Using Denley's multipoint inoculator, 10^4 cells were deposited on Mueller Hinton agar (Difco) containing range of 2 fold dilutions of test compounds. These plates were incubated for 24 hrs at 35° C. and MIC results recorded. MIC is defined as minimum drug concentration that inhibits test organisms. For determining MIC of test compounds against Streptococcus pneumoniae 49619 (SPN 49619) and Streptococcus pyogenes 801 (SPY 801), Mueller Hinton agar containing 5% sheep blood was employed.

[2] = system: Methicilin resistant Staphylococcus epidermidis 118 (MRSE 118); assay: as above; assay type: cell-based; settings: Mueller Hinton agar, 24 hrs at 35° C.
Description: as §1

[3] = system: Methicilin resistant Staphylococcus aureus 32 (MRSA 32); assay: as above; assay type: cell-based; settings: Mueller Hinton agar, 24 hrs at 35° C.
Description: as §1

[4] = system: methicillin resistant Staphylococcus aureus strain MRSA 32; assay: Murine Assay Procedure (in vivo efficacy, MRSA 32 infection); settings: swiss mice infected intraperitoneally with MRSA 32, oral gavage 1 h after infection, repeat dose 3 hrs later, percentage survival on Day 7
Description: Oxazolidinone new chemical entities (NCEs) were evaluated for their in vivo efficacy in a murine infection caused by multi-drug resistant, methicillin resistant Staphylococcus aureus strain, referred to as MRSA 32, a clinical isolate obtained from a hospitalized patient. The procedure used for the murine assay is as follows:
Four weeks old swiss mice of 18-22 gm body weight were infected with MRSA 32 strain suspended in 5% Hog gastric mucin. The infecting dose of bacteria was set at 1-2×10^8 CFU/animal. The infecting dose was administered in 0.5 ml volume injected into peritonial cavity of mice. The treatment with oxazolidinone NCEs was started one hour after infection by administering 100-200 μl of the suspensions of oxazolidinone compounds in 5% Tween 80 by oral gavage. A repeat dose was similarly administered 3 hrs later. Each oxazolidinone NCE was tested at 2-3 different dosages in the range of 2.5 mg/kg to 20 mg/kg. In each dose group 6 mice were included. As an infection control group 12 mice were infected with MRSA 32 strain without giving any treatment. For compounds affording protection of MRSA infected mice, ED50 dosages were calculated on the basis of percentage survival on Day 7 after infection.

[5] = system: Streptococcus pyogenes 801 (SPY 801); assay: Minimum Inhibitory Concentration (MIC) determination, agar with 5% sheep blood; assay type: cell-based; settings: Mueller Hinton agar containing 5% sheep blood
Description: as §1

[6] = system: Streptococcus pneumoniae 49619 (SPN 49619); assay: as above; assay type: cell-based; settings: Mueller Hinton agar containing 5% sheep blood
Description: as §1

| MIC [1] | MIC [2] | MIC [3] | MIC [5] | MIC [6] | SMILES | ED50 [4] |
| --- | --- | --- | --- | --- | --- | --- |
| 2 µg/mL (≈ 4.71 µM) | 1 µg/mL (≈ 2.36 µM) | 2 µg/mL (≈ 4.71 µM) | 1 µg/mL (≈ 2.36 µM) | 1 µg/mL (≈ 2.36 µM) | CC(=O)NC[C@H]1CN(c2cc(F)c(N3CCC(O)(CN=[N+]=[N-])CC3)c(F)c2)C(=O)O1 [Example 186, (S)—N-{3-[4-(4-Azidomethyl-4-hydroxypiperidin-1-yl)-3,5-difluorophenyl]-2-oxo-oxazolidin-5-ylmethyl}-acetamide] | 5 mg/kg |
| 2 µg/mL (≈ 5.93 µM) | 1 µg/mL (≈ 2.96 µM) | 2 µg/mL (≈ 5.93 µM) | 2 µg/mL (≈ 5.93 µM) | 2 µg/mL (≈ 5.93 µM) | CC(=O)NC[C@H]1CN(c2ccc(N3CCOCC3)c(F)c2)C(=O)O1 [Linezolid, reference compound] | 5 mg/kg |
